According to US20240425492A1, “POLYMORPHS AS ERBB INHIBITORS” (Black Diamond Therapeutics, Inc., priority 2021, published 2024):
In brackets after ≈: the same amount, converted by molar mass. Where two headings read alike, the source gives them in different places.

Columns and labels:
[1] = Variable relative humidity XRPD experiments for Form F; assay type: physicochemical
From the text: Protocol 9: Variable relative humidity experiment. Form F was investigated by variable humidity XRPD experiments. […] Form L reverted to Form F in >10% RH. […] See Example 8 for more details.
Form F was investigated by variable humidity XRPD experiments.

physchem = settings: 37 °C, thermodynamic from solid
Description: (§1) 2.01 mg of the free base Form C (equal to 2 mg free base after correction for water content) was weighed into 2 mL vial. 2.09 mg of the free base Form F (equal to 2 mg free base after correction for water content) was weighed into a 2 mL vial. I mL of aqueous media was added, respectively. These suspensions were stirred at 37° C. at a rate of 400 rpm. These suspensions were taken out after 2 h and 24 h, and then centrifuged at 14,000 rpm for 5 minutes. The supernatants were analyzed by HPLC. The pH of the supernatants were tested.

[2] = Hygroscopicity by DVS at 25° C.; assay type: physicochemical; settings: for Desorp. (%) / Sorp. (%): DVS 25° C.
Description: Dynamic Vapor Sorption (DVS): DVS analysis was performed using Intrinsic. Analysis was performed using parameters as set forth below.
The hygroscopicity for Form C and Form F was examined. See, e.g., Table E.

[3] = Bulk stability under accelerated storage conditions (XRPD and HPLC); settings: Solid state
From the text: Solids obtained after bulk stability study were characterized by XRPD and HPLC.

[4] = Solubility study in aqueous media at 37° C. (HPLC of supernatants, pH)
Description: as §1

[5] = 25° C./92.5% RH in an open vial, 2 weeks
[6] = 25° C./92.5% RH in an open vial, 4 weeks
[7] = 40° C./75% RH in an open vial, 2 weeks
[8] = 40° C./75% RH in an open vial, 4 week
[9] = 60° C., tight container, 2 weeks
[10] = 60° C., tight container, 4 weeks
[11] = pH 6.8 (50 mM) phosphate buffer, 37° C.

SMILES: CN1C[C@H]2C[C@@]2(C#Cc2cc3ncnc(Nc4cccc(Cl)c4F)c3cc2NC(=O)/C=C/CN2CCOCC2)C1 [Form F]
- 2 h Solubility (pH 5): Degradation
- 24 h Solubility (pH 5): Degradation
- 2 h Solubility (pH 6.5): Degradation
- 24 h Solubility (pH 6.5): Degradation
- form conversion in variable humidity XRPD ([1]; 0% RH): converted to a new crystalline form, assigned as Form L
- XRPD (form observed) ([1]; 0% RH (12 h), step 8 of humidity sequence): Form L (Only stable in low humidity)
- XRPD (form observed) ([1]; 0% RH (24 h), step 9 of humidity sequence): Form L (Only stable in low humidity)
- XRPD (form observed) ([1]; 10% RH, step 7 of humidity sequence): Form F
- XRPD (form observed) ([1]; 10% RH, step 10 of humidity sequence): Form F
- XRPD (form observed) ([1]; 40% RH, step 1 of humidity sequence): Form F
- XRPD (form observed) ([1]; 40% RH, step 6 of humidity sequence): Form F
- XRPD (form observed) ([1]; 40% RH, step 11 of humidity sequence): Form F
- XRPD (form observed) ([1]; 70% RH, step 2 of humidity sequence): Form F
- XRPD (form observed) ([1]; 70% RH, step 5 of humidity sequence): Form F
- XRPD (form observed) ([1]; 90% RH (3 h), step 3 of humidity sequence): Form F
- XRPD (form observed) ([1]; 90% RH (6 h), step 4 of humidity sequence): Form F
- solubility (physchem; pH 1, simulated gastric fluid): > 2 mg/mL
- solubility at 2 h (physchem; pH 1, simulated gastric fluid): > 2 mg/mL
- solubility at 24 h (physchem; pH 1, simulated gastric fluid): > 2 mg/mL
- solubility (physchem; pH 2, simulated gastric fluid): > 2 mg/mL
- solubility at 2 h (physchem; pH 2, simulated gastric fluid): > 2 mg/mL
- solubility at 24 h (physchem; pH 2, simulated gastric fluid): > 2 mg/mL
- solubility (physchem; pH 4.5, aqueous buffer): > 2 mg/mL
- solubility at 2 h (physchem; pH 4.5, aqueous buffer): > 2 mg/mL
- solubility at 24 h (physchem; pH 4.5, aqueous buffer): > 2 mg/mL
- solubility (physchem; pH 6.8, aqueous buffer): ~0.02 mg/mL (≈ 35.6 µM)
- solubility at 2 h (physchem; pH 6.8, aqueous buffer): 0.0207 mg/mL (≈ 36.9 µM)
- solubility at 24 h (physchem; pH 6.8, aqueous buffer): 0.0198 mg/mL (≈ 35.3 µM)
- solubility (physchem; water): < 0.01 mg/mL
- solubility at 2 h (physchem; water): 0.007 mg/mL (≈ 12.5 µM)
- solubility at 24 h (physchem; water): 0.0075 mg/mL (≈ 13.4 µM)
- DVS water uptake from 40% RH to 70% RH ([2]; 25° C., dm/dt = 0.002%): 1.1% water uptake from 40% RH to 70% RH
- DVS water uptake from 40% RH to 95% RH ([2]; 25° C., dm/dt = 0.002%): 10.2% water uptake from 40% RH to 95% RH
- Desorp. (%) ([2]; Relative Humidity 0%, first Desorp.): 0.0%
- Sorp. (%) ([2]; Relative Humidity 0%, second Sorp.): 0.0%
- Desorp. (%) ([2]; Relative Humidity 10%, first Desorp.): 1.4%
- Sorp. (%) ([2]; Relative Humidity 10%, second Sorp.): 1.3%
- Desorp. (%) ([2]; Relative Humidity 20%, first Desorp.): 1.9%
- Sorp. (%) ([2]; Relative Humidity 20%, second Sorp.): 1.7%
- Desorp. (%) ([2]; Relative Humidity 30%, first Desorp.): 3.6%
- Sorp. (%) ([2]; Relative Humidity 30%, second Sorp.): 2.1%
- Desorp. (%) ([2]; Relative Humidity 40%, first Desorp.): 6.3%
- Sorp. (%) ([2]; Relative Humidity 40%, first Sorp.): 2.5%
- Desorp. (%) ([2]; Relative Humidity 40%, second Desorp.): 6.4%
- Sorp. (%) ([2]; Relative Humidity 40%, second Sorp.): 2.8%
- Desorp. (%) ([2]; Relative Humidity 50%, first Desorp.): 8.0%
- Sorp. (%) ([2]; Relative Humidity 50%, first Sorp.): 2.8%
- Desorp. (%) ([2]; Relative Humidity 50%, second Desorp.): 7.9%
- Sorp. (%) ([2]; Relative Humidity 50%, second Sorp.): 3.2%
- Desorp. (%) ([2]; Relative Humidity 60%, first Desorp.): 9.4%
- Sorp. (%) ([2]; Relative Humidity 60%, first Sorp.): 3.2%
- Desorp. (%) ([2]; Relative Humidity 60%, second Desorp.): 9.3%
- Sorp. (%) ([2]; Relative Humidity 60%, second Sorp.): 3.7%
- Desorp. (%) ([2]; Relative Humidity 70%, first Desorp.): 10.2%
- Sorp. (%) ([2]; Relative Humidity 70%, first Sorp.): 3.6%
- Desorp. (%) ([2]; Relative Humidity 70%, second Desorp.): 10.0%
- Sorp. (%) ([2]; Relative Humidity 70%, second Sorp.): 4.2%
- Desorp. (%) ([2]; Relative Humidity 80%, first Desorp.): 11.0%
- Sorp. (%) ([2]; Relative Humidity 80%, first Sorp.): 10.4%
- Desorp. (%) ([2]; Relative Humidity 80%, second Desorp.): 10.8%
- Sorp. (%) ([2]; Relative Humidity 80%, second Sorp.): 10.4%
- Desorp. (%) ([2]; Relative Humidity 90%, first Desorp.): 11.8%
- Sorp. (%) ([2]; Relative Humidity 90%, first Sorp.): 11.6%
- Desorp. (%) ([2]; Relative Humidity 90%, second Desorp.): 11.6%
- Sorp. (%) ([2]; Relative Humidity 90%, second Sorp.): 11.4%
- Desorp. (%) ([2]; Relative Humidity 95%, first Desorp.): 12.9%
- Sorp. (%) ([2]; Relative Humidity 95%, first Sorp.): 12.7%
- Desorp. (%) ([2]; Relative Humidity 95%, second Desorp.): 12.2%
- Sorp. (%) ([2]; Relative Humidity 95%, second Sorp.): 12.2%
- XRPD after DVS test ([2]; DVS at 25° C.): No form change
- Bulk (XRPD) [3, 5]: No form change
- Purity, Bulk (HPLC) [3, 5]: 95.5%
- Bulk (XRPD) [3, 6]: No form change
- Purity, Bulk (HPLC) [3, 6]: 94.1%
- Bulk (XRPD) [3, 7]: No form change
- Purity, Bulk (HPLC) [3, 7]: 94.3%
- Bulk (XRPD) [3, 8]: No form change
- Purity, Bulk (HPLC) [3, 8]: 91.6%
- Bulk (XRPD) [3, 9]: No form change
- Purity, Bulk (HPLC) [3, 9]: 90.1%
- Bulk (XRPD) [3, 10]: No form change
- Purity, Bulk (HPLC) [3, 10]: 82.6%
- 24 h (pH) of supernatant ([4]; SGF, pH 2.0, 37° C.): pH 3.5
- XRPD of residual solid ([4]; Water, 37° C.): Form F
- 24 h (pH) of supernatant ([4]; Water, 37° C.): pH 7.0
- 24 h (pH) of supernatant ([4]; pH 1.0 (0.1N HCl), 37° C.): pH 0.9
- 24 h (pH) of supernatant ([4]; pH 4.5 (50 mM) acetate buffer, 37° C.): pH 4.6
- XRPD of residual solid [4, 11]: Form F
- 24 h (pH) of supernatant [4, 11]: pH 6.7
